Literature values, collected in patent US8227637B2, “Stable, water-soluble near infrared dyes” (Epolin, Inc., priority 2008, dated 2012).

Settings: SbF6 salt of U.S. Pat. No. 3,709,830, statement in background

In the case of `OCCN(CCO)c1ccc([N+](=C2C=CC(=[N+](c3ccc(N(CCO)CCO)cc3)c3ccc(N(CCO)CCO)cc3)C=C2)c2ccc(N(CCO)CCO)cc2)cc1.[F][Sb-]([F])([F])([F])([F])[F].[F][Sb-]([F])([F])([F])([F])[F]` [N,N′,N″,N′″-tetrakis(4-[di(2-hydroxyethyl)amino]-phenyl)-p-benzoquinonebis(imoniumhexafluoro-antimonate)], the water solubility is listed as “not water-soluble”.
